Consider 2 substances from patent US8017584B2, “GD3-mimetic peptides” (Otsuka Pharmaceutical Co., Ltd., priority 2000, dated 2011).

Assay [1] concerns T-cell-rich lymphocytes / IL-2-dependent CTLL2 cells. Nature of the assay: Cell response test: IL-2 activity (3H thymidine up-take of CTLL2 cells) in supernatant of spleen cells of mice immunized with R4 peptide (R4-KLH). To be noted: mice immunized with R4 peptide. The assay is classed as cell-based, mouse. The protocol:
Using a fusion peptide R4-KLH obtained in Example 3 (4) between GD3R4 and KLH or a MAP form fusion peptide R4MAP-KLH created between GD3R4 and KLH, immunization was performed as described in (1) above.
Briefly, an emulsion mixed with an adjuvant (1:1, by volume) was administered to each member of groups of mice, each group consisting of 3 mice (CD-1), in an amount of 100 μL/mouse (for one administration (ip), peptide 30 μg/mouse) for immunization. In the case of R4-KLH, administration was performed every one week for one month, and subsequently every two weeks for one month; and in the case of R4MAP-KLH, every one week for 2 months. In any case, 4 days after the final immunization, blood was collected to thereby prepare antiserum samples.
(§1) The spleen aseptically removed from each of the above-immunized mice was minced in a 10% FCS-supplemented RPMI 1640 medium. By use of a nylon wool column, T-cell-rich lymphocytes were prepared and the cells were counted. The above medium containing the cells in an amount of 10^5 cells per 150 μL was added to each of the wells of a culture plate. PHA was added so as to attain a final concentration of 1 μg/mL. A peptide of the present invention or any of different gangliosides in PBS was added, and the mixture was incubated for 96 hours. A supernatant (100 μL) was obtained from each well. The IL-2 activity of the supernatant was determined through use of IL-2-dependent mouse cells, CTLL2. Briefly, the supernatant (100 μL) diluted 2 to 50-fold with a medium was added to the wells in an amount of 10^4 CTLL2 cells/well, followed by incubation at 37° C. for 48 hours. Subsequently, 3H-thymidine (0.5 μCi) was added to each well, followed by incubation for 6 hours. CTLL2 cells were recovered on a paper filter and counted for 3H.

Assay [2] concerns anti-GD3 antibody 4F6. The assay is described as follows: ELISA of MAPs immobilized at various amounts with 4F6 (Example 5(2), FIG. 3). Type of assay: binding, mouse. The note with it: MAPs or GD3 immobilized at various amounts. From the text:
(1) In a manner similar to that described in Example 3, peptides of N-terminus 9 amino acid residues or C-terminus 9 amino acid residues of GD3R1, GD3R2, GD3R3, or GD3R4. The nomenclature and sequences of respective peptides employed in the present test are shown in FIG. 2 These were employed as multi-antigen peptides (MAPs). (2) In order to extend the research on bonding between the anti-GD3 antibody 4F6 and each of the GD3-mimetic peptides shown in FIG. 1, multi-antigen peptides (MAPs) were subjected to ELISA. MAP samples having a variety of concentrations shown on the X-axis in FIG. 3 were provided, and each sample was immobilized onto the wells of a 96-well plate. Subsequently, the wells were blocked with a blocking solution (TBS supplemented with 1% BSA, 0.1% skim milk, and 0.02% Tween 20) at 4° C. overnight. 4F6 (hybridoma supernatant: used in the neat form) was added (100 μL/well) for reaction at room temperature for 2 hours. After completion of reaction, the supernatant was discarded, and the wells were washed with a washing solution (TBS supplemented with 1% FBS and 0.05% Tween 20) six times. Subsequently, the wells were allowed to react with peroxidase-labeled anti-mouse IgG (diluted 1,000-fold with a blocking solution) at room temperature for 2 hours. The wells were again washed with a washing solution four times, and the amount of peroxidase enzyme remaining in each well was detected and quantitatively determined with the substrate TMB, whereby binding of MAP to 4F6 was investigated. The test was performed in triplicate, and the values in the graph are “mean ±SD.”

Assay [3] concerns binding between GD3 and 4F6. Nature of the assay: Inhibition by exogenously added MAPs of binding between GD3 and 4F6 (Example 5(4), FIG. 5). On the set-up: species or system mouse. Here is the method:
(4) Next, investigation was made as to whether binding between GD3R3 or GD3R4 and 4F6 occurred at the GD3 binding site of 4F6. To the wells of a plate to which GD3 had been immobilized (100 ng/well), each of the MAP samples having a variety of concentrations shown on the X-axis in FIG. 5 and 4F6 (100 μL/well) were simultaneously added, whereby an inhibitory test was performed. The test was performed in triplicate, and the values in the graph are “mean ±SD.”

For assay [4], the system named is binding between GD3 and 4F6 (anti-GD3 antibody). Nature of the assay: Inhibition by immobilized MAPs of binding between GD3 and 4F6 (Example 5(3), FIG. 4). The note with it: immobilized MAP or GD3 absorbs 4F6. On the set-up: species or system mouse. The protocol:
(3) The binding affinity shown in FIG. 3 was investigated in another method. Briefly, MAP samples having a variety of concentrations shown on the X-axis in FIG. 4 were provided. Each sample was immobilized onto the wells of a 96-well plate, and the wells were allowed to react with 4F6 (100 μL/well) at 4° C. overnight. On the following day, the supernatant (80 μL) was collected and added to the wells of another plate to which GD3 had been immobilized in advance (100 ng/well) for reaction at room temperature for 2 hours. After completion of reaction, the amount of antibody 4F6 that had been condensed with GD3 (i.e., that had not been absorbed by MAP) was detected and quantitatively determined through the method described (2) above, whereby inhibitory effect of MAP on binding of GD3 to 4F6 was investigated. The test was performed in triplicate, and the values in the graph are “mean ±SD.”

Assay [5] concerns T-cell-rich lymphocytes / IL-2-dependent CTLL2 cells. The assay is described as follows: Cell response test: IL-2 activity (3H thymidine up-take of CTLL2 cells) in supernatant of spleen cells of mice immunized with GD3. The assay is classed as cell-based, mouse. To be noted: mice immunized with GD3. The protocol: Similar to the case of immunization with R4-KLH, antiserum samples were also prepared through immunization with GD3 (30 μg).
as §1

The subject of assay [6] is binding between GD3 and 4F6. Nature of the assay: Inhibition by nine-residue MAPs of binding between GD3 and 4F6 (Example 5(5), FIG. 6). More on the design: species or system mouse. To be noted: nine-residue MAP compared with the 15 residues. Here is the method: Next, in an attempt to determine the domain required for establishing binding to anti-GD3 antibody 4F6 in GD3-mimetic peptides, an MAP of nine N-terminus residues of GD3R3 peptide and an MAP of nine C-terminus residues of the same GD3R3 peptide as shown in FIG. 2 were synthesized, their binding to 4F6 was studied by means of ELISA. ELISA was performed was performed in triplicate, and the values in the graphs are “mean ±SD.”

[7] abbreviates: PHA 1 μg/mL + stimulant 0.5 μg/ml, supernatant dilution ½.
The mark [8] stands for this setting: stimulant 0.5 μg/ml, supernatant dilution 1/20.
[9] abbreviates: stimulant 0.5 μg/ml, supernatant dilution 1/50.
Where [10] appears, read: stimulant 0.5 μg/ml, supernatant dilution ⅕.
[11] abbreviates: stimulant 1 μg/ml, supernatant dilution 1/20.
Where [12] appears, read: stimulant 1 μg/ml, supernatant dilution 1/50.
Setting [13] is: stimulant 1 μg/ml, supernatant dilution ½.
[14] abbreviates: stimulant 1 μg/ml, supernatant dilution ⅕.
Where [15] appears, read: stimulant 2 μg/ml, supernatant dilution 1/20.
The mark [16] stands for this setting: stimulant 2 μg/ml, supernatant dilution 1/50.
Where [17] appears, read: stimulant 2 μg/ml, supernatant dilution ½.
Where [18] appears, read: stimulant 2 μg/ml, supernatant dilution ⅕.
[19] abbreviates: stimulant 5 μg/ml, supernatant dilution 1/20.
The mark [20] stands for this setting: stimulant 5 μg/ml, supernatant dilution 1/50.
The mark [21] stands for this setting: stimulant 5 μg/ml, supernatant dilution ½.
The mark [22] stands for this setting: stimulant 5 μg/ml, supernatant dilution ⅕.

For “NeuAc α2-8 NeuAc α2-3 Gal β1-4 Glc β1-1 Cer [GD3, reference compound]”, the “3H Thymidine up-take into CTLL2 cells, mean ± SE (4 wells)” value in assay [1] (setting [7]) came to 2635 ± 308; in assay [1] (setting [8]), 850 ± 87; in assay [1] (setting [9]) it was 169 ± 25; in assay [1] (setting [10]), 1792 ± 154; in assay [1] (setting [11]), 794 ± 82; in assay [1] (setting [12]), 202 ± 24. The “3H Thymidine up-take into CTLL2 cells, mean ± SE (4 wells)” value amounted to 2721 ± 284 in assay [1] (setting [13]); 1658 ± 134 in assay [1] (setting [14]); 809 ± 74 in assay [1] (setting [15]); 212 ± 28 in assay [1] (setting [16]); 2797 ± 295 in assay [1] (setting [17]); 1722 ± 163 in assay [1] (setting [18]). The “3H Thymidine up-take into CTLL2 cells, mean ± SE (4 wells)” value in assay [1] (setting [19]) came to 764 ± 68; in assay [1] (setting [20]), 184 ± 23; in assay [1] (setting [21]), 2619 ± 316; in assay [1] (setting [22]) it was 1636 ± 145; in assay [5] (setting [7]), 2795 ± 175; in assay [5] (setting [8]) it was 810 ± 72. Further, the “3H Thymidine up-take into CTLL2 cells, mean ± SE (4 wells)” value in assay [5] (setting [9]) worked out at 207 ± 22; in assay [5] (setting [10]), 1876 ± 152; in assay [5] (setting [11]), 762 ± 55; in assay [5] (setting [12]) it was 186 ± 27; in assay [5] (setting [13]) it was 2568 ± 235; in assay [5] (setting [14]), 1834 ± 169. The “3H Thymidine up-take into CTLL2 cells, mean ± SE (4 wells)” value in assay [5] (setting [15]) is 758 ± 61; in assay [5] (setting [16]) it was 197 ± 28; in assay [5] (setting [17]), 2453 ± 264; in assay [5] (setting [18]), 1901 ± 188; in assay [5] (setting [19]), 794 ± 68; in assay [5] (setting [20]), 179 ± 23. Besides, the entries for the “3H Thymidine up-take into CTLL2 cells, mean ± SE (4 wells)” value in assay [5] (setting [21]) and in assay [5] (setting [22]) were 2656 ± 257 and 1857 ± 185, respectively. In assay [2], the “binding of 4F6 to immobilized sample (words, FIG. 3)” value is “declined from the concentration 0.8 μg/well and higher”. For the same substance, the “inhibitory effect of exogenously added sample on binding between GD3 and 4F6 (words, FIG. 5)” value in assay [3] (added simultaneously with 4F6 to GD3 100 ng/well) is “exhibited inhibitory effect”. For the same substance, the “order of binding strength to 4F6” value in assay [3] (deduced from FIG. 5) is recorded as “GD3>GD3R3>GD3R4”. Further, in assay [4], the “inhibition of GD3 binding to 4F6 by immobilized sample (words, FIG. 4)” value is on record as “inhibit GD3 from binding to the antibody”.
Turning to “GD3R3C9: MAP of nine C-terminus residues of GD3R3 peptide (YAQRFFLLS)”, the “ability to inhibit binding between GD3 and 4F6 (words, FIG. 6)” value in assay [6] is given as “comparable ability to the 15 residues”.
